Source: patent US11414424B2, “Cardiac sarcomere inhibitors” (Cytokinetics, Inc., priority 2018, dated 2022)

Tested on: bovine cardiac myofibrils
Test: Myofibril assay: PK/LDH-coupled steady-state ATPase activity of skinned bovine cardiac myofibrils
Assay type: biochemical
Details: Ca2+ activating to 75% of maximal rate
Summary of the method: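 Steady-state ATPase of detergent-skinned bovine left-ventricular myofibrils (1 mg/mL), PK/LDH-coupled NADH read at 340 nm, in PIPES/MgCl2 buffer pH 6.8 with 50 μM ATP, 0.6 mM EGTA and CaCl2 set for 50% or 75% activation. Inhibition of activity measured.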

Row | CDMF75 IC15 [µM] | SMILES
1 | 13.0 | CC(=O)N1CC2(C1)C(=O)N(c1ncc(C(F)F)cc1F)CC(=O)N2[C@@H](C)c1ccc(Cl)cc1 [Compound 564, (S)-2-acetyl-5-(1-(4-chlorophenyl)ethyl)-8-(5-(difluoromethyl)-3-fluoropyridin-2-yl)-2,5,8-triazaspiro[3.5]nonane-6,9-dione]
2 | 17.8 | CC(=O)N1CC2(C1)C(=O)N(c1ncc(C(F)(F)F)cc1F)CC(=O)N2[C@@H](C)c1ccc(Cl)cc1 [Compound 565, (S)-2-acetyl-5-(1-(4-chlorophenyl)ethyl)-8-(3-fluoro-5-(trifluoromethyl)-pyridin-2-yl)-2,5,8-triazaspiro[3.5]nonane-6,9-dione]
3 | 4.0 | C[C@@H](c1ccc(Cl)cc1)N1C(=O)CN(c2ncc(Cl)cc2F)C(=O)C12CN(CC(F)F)C2 [Compound 566, (S)-8-(5-chloro-3-fluoro-pyridin-2-yl)-5-(1-(4-chlorophenyl)ethyl)-2-(2,2-difluoroethyl)-2,5,8-triazaspiro[3.5]nonane-6,9-dione]
4 | 1.2 | COC(=O)N1CC2(C1)C(=O)N(c1ncc(Cl)cc1F)CC(=O)N2[C@@H](C)c1ccc(Cl)cc1 [Compound 567, methyl (S)-8-(5-chloro-3-fluoropyridin-2-yl)-5-(1-(4-chlorophenyl)ethyl)-6,9-dioxo-2,5,8-triazaspiro-[3.5]nonane-2-carboxylate]
5 | 1.2 | C[C@@H](c1ccc(Cl)cc1)N1C(=O)CN(c2ncc(Cl)cc2F)C(=O)C12CN(C=O)C2 [Compound 568, (S)-8-(5-chloro-3-fluoro-pyridin-2-yl)-5-(1-(4-chlorophenyl)ethyl)-6,9-dioxo-2,5,8-triazaspiro-[3.5]nonane-2-carbaldehyde]
6 | 2.6 | C[C@@H](c1ccc(Cl)cc1)N1C(=O)CN(c2ncc(Cl)cc2F)C(=O)C12CN(C(=O)OCC(F)F)C2 [Compound 569, 2,2-difluoroethyl (S)-8-(5-chloro-3-fluoropyridin-2-yl)-5-(1-(4-chlorophenyl)-ethyl)-6,9-dioxo-2,5,8-triazaspiro[3.5]nonane-2-carboxylate]
7 | 2.2 | CC(=O)N1CC2(C1)C(=O)N(c1ncc(Cl)cc1F)CC(=O)N2[C@@H](C)c1ccc(C(F)(F)F)cc1 [Compound 570, (S)-2-acetyl-8-(5-chloro-3-fluoropyridin-2-yl)-5-(1-(4-(trifluoromethyl)phenyl)-ethyl)-2,5,8-triazaspiro-[3.5]nonane-6,9-dione]
8 | 2.0 | CC(=O)N1CC2(C1)C(=O)N(c1ncc(Br)cc1F)CC(=O)N2[C@@H](C)c1ccc(C(F)(F)F)cc1 [Compound 571, (S)-2-acetyl-8-(5-bromo-3-fluoropyridin-2-yl)-5-(1-(4-(trifluoromethyl)phenyl)-ethyl)-2,5,8-triazaspiro-[3.5]nonane-6,9-dione]
9 | 7.4 | CC(=O)N1CCC2(CC1)C(=O)N(c1ncc(Cl)cc1F)CC(=O)N2Cc1ccc(C(F)(F)F)cc1 [Compound 572, 9-acetyl-4-(5-chloro-3-fluoropyridin-2-yl)-1-(4-(trifluoromethyl)benzyl)-1,4,9-triazaspiro[5.5]-undecane-2,5-dione]
10 | 6.5 | CC1(CO)C(=O)N(c2ncc(Cl)cc2F)CC(=O)N1Cc1ccc(C(F)(F)F)cc1 (stereo not shown) [Compound 573, 1-(5-chloro-3-fluoropyridin-2-yl)-3-(hydroxymethyl)-3-methyl-4-(4-(trifluoro-methyl)benzyl)piperazine-2,5-dione]
11 | 0.3 | O=C1CN(c2ncc(Cl)cc2F)C(=O)C2(CC(F)C2)N1Cc1ccc(C(F)(F)F)cc1 (stereo not shown) [Compound 574, 8-(5-chloro-3-fluoropyridin-2-yl)-2-fluoro-5-(4-(trifluoromethyl)benzyl)-5,8-diazaspiro[3.5]nonane-6,9-dione]
12 | 1.5 | O=C1CN(c2ncc(Cl)cc2F)C(=O)C2(COC2)N1Cc1ccc(Cl)cc1 [Compound 575, 8-(5-chloro-3-fluoropyridin-2-yl)-5-(4-chlorobenzyl)-2-oxa-5,8-diazaspiro[3.5]nonane-6,9-dione]
13 | 2.2 | CC1(C)C(=O)N(c2ncc(Cl)cc2F)CC(=O)N1Cc1ccc(Cl)cc1 [Compound 576, 1-(5-chloro-3-fluoropyridin-2-yl)-4-(4-chlorobenzyl)-3,3-dimethylpiperazine-2,5-dione]
14 | 0.9 | O=C1CN(c2ncc(Cl)cc2F)C(=O)C2(CC2)N1Cc1ccc(Cl)cc1 [Compound 577, 7-(5-chloro-3-fluoropyridin-2-yl)-4-(4-chlorobenzyl)-4,7-diazaspiro[2.5]octane-5,8-dione]
15 | 1.3 | CNC(=O)N1CC2(C1)C(=O)N(c1ncc(Cl)cc1F)CC(=O)N2[C@@H](C)c1ccc(C(F)(F)F)cc1 [Compound 592, (S)-8-(5-chloro-3-fluoro-pyridin-2-yl)-N-methyl-6,9-dioxo-5-(1-(4-(trifluoromethyl)phenyl)-ethyl)-2,5,8-triazaspiro-[3.5]nonane-2-carboxamide]
16 | 2.3 | C[C@@H](c1ccc(C(F)(F)F)cc1)N1C(=O)CN(c2ncc(Cl)cc2F)C(=O)C12CN(CC(F)F)C2 [Compound 593, (S)-8-(5-chloro-3-fluoro-pyridin-2-yl)-2-(2,2-difluoroethyl)-5-(l-(4-(trifluoromethyl)phenyl)-ethyl)-2,5,8-triazaspiro-[3.5]nonane-6,9-dione]
17 | 1.7 | CSCCC1C(=O)N(c2ncc(Cl)cc2F)CC(=O)N1Cc1ccc(C(F)(F)F)cc1 (stereo not shown) [Compound 610, 1-(5-chloro-3-fluoropyridin-2-yl)-3-(2-(methylthio)-ethyl)-4-(4-(trifluoro-methyl)-benzyl)piperazine-2,5-dione]
18 | 13.6 | CS(=O)(=O)CCC1C(=O)N(c2ncc(Cl)cc2F)CC(=O)N1Cc1ccc(C(F)(F)F)cc1 (stereo not shown) [Compound 612, 1-(5-chloro-3-fluoropyridin-2-yl)-3-(2-(methylsulfonyl)-ethyl)-4-(4-(trifluoro-methyl)benzyl)piperazine-2,5-dione]
19 | 1.3 | COC(=O)N1CC2(C1)C(=O)N(c1ncc(Cl)cc1F)CC(=O)N2[C@@H](C)c1ccc(C(F)(F)F)cc1 [Compound 615, methyl (S)-8-(5-chloro-3-fluoropyridin-2-yl)-6,9-dioxo-5-(1-(4-(trifluoro-methyl)phenyl)ethyl)-2,5,8-triazaspiro[3.5]-nonane-2-carboxylate]
20 | 11.85 | C[C@H](c1ccc(Cl)cc1)N1C(=O)CN(c2ncc(Cl)cc2F)C(=O)C12CC2 [Compound 616, (R)-7-(5-chloro-3-fluoro-pyridin-2-yl)-4-(1-(4-chlorophenyl)ethyl)-4,7-diazaspiro[2.5]octane-5,8-dione]
21 | 1.8 | C[C@@H](c1ccc(C(F)(F)F)cc1)N1C(=O)CN(c2ncc(Cl)cc2F)C(=O)C12CN(C=O)C2 [Compound 620, (S)-8-(5-chloro-3-fluoro-pyridin-2-yl)-6,9-dioxo-5-(1-(4-(trifluoromethyl)-phenyl)ethyl)-2,5,8-triazaspiro[3.5]nonane-2-carbaldehyde]
22 | 3.0 | CC1(C2C(=O)N(c3ncc(Cl)cc3F)CC(=O)N2Cc2ccc(C(F)(F)F)cc2)COC1 (stereo not shown) [Compound 623, 1-(5-chloro-3-fluoropyridin-2-yl)-3-(3-methyloxetan-3-yl)-4-(4-(trifluoro-methyl)-benzyl)piperazine-2,5-dione]
